Laboratory results from US10798941B2, “Microbiocidal oxadiazole derivatives” (SYNGENTA PARTICIPATIONS AG, priority 2016, dated 2020).
Read-outs that look alike come from different tables or passages of the source.

How the values were obtained:
[1] = test system: Puccinia recondita f. Sp. Tritici; assay: Puccinia recondita f. sp. tritici / wheat / leaf disc preventative (brown rust); format: in vivo; details: foliar, 168 h, read-out: disease control
Description: Leaf disks or leaf segments of various plant species are cut from plants grown in a greenhouse. The cut leaf disks or segments are placed in multiwell plates (24-well format) onto water agar. The leaf disks are sprayed with a test solution before (preventative) or after (curative) inoculation. Compounds to be tested are prepared as DMSO solutions (max. 10 mg/ml) which are diluted to the appropriate concentration with 0.025% Tween20 just before spraying. The inoculated leaf disks or segments are incubated under defined conditions (temperature, relative humidity, light, etc.) according to the respective test system. A single evaluation of disease level is carried out 3 to 14 days after inoculation, depending on the pathosystem. Percent disease control relative to the untreated check leaf disks or segments is then calculated.
Wheat leaf segments cv. Kanzler were placed on agar in multiwell plates (24-well format) and sprayed with the formulated test compound diluted in water. The leaf disks were inoculated with a spore suspension of the fungus 1 day after application. The inoculated leaf segments were incubated at 19° C. and 75% relative humidity (rh) under a light regime of 12 hours light/12 hours darkness in a climate cabinet and the activity of a compound was assessed as percent disease control compared to untreated when an appropriate level of disease damage appears in untreated check leaf segments (7 to 9 days after application).
The following compounds at 200 ppm in the applied formulation give at least 80% disease control in this test when compared to untreated control leaf disks under the same conditions, which show extensive disease development.

[2] = test system: Glomerella Lagenarium (Colletotrichum Lagenarium); assay: Glomerella lagenarium (Colletotrichum lagenarium) liquid culture / cucumber / preventative (anthracnose); format: cell-based; details: Colletotrichum orbiculare, read-out: disease control
Description: Mycelia fragments or conidia suspensions of a fungus prepared either freshly from liquid cultures of the fungus or from cryogenic storage, are directly mixed into nutrient broth. DMSO solutions of the test compound (max. 10 mg/ml) are diluted with 0.025% Tween20 by a factor of 50 and 10 μl of this solution is pipetted into a microtiter plate (96-well format). The nutrient broth containing the fungal spores/mycelia fragments is then added to give an end concentration of the tested compound. The test plates are incubated in the dark at 24° C. and 96% relative humidity. The inhibition of fungal growth is determined photometrically after 2 to 7 days, depending on the pathosystem, and percent antifungal activity relative to the untreated check is calculated.
Conidia of the fungus from cryogenic storage are directly mixed into nutrient broth (PDB—potato dextrose broth). After placing a (DMSO) solution of test compound into a microtiter plate (96-well format), the nutrient broth containing the fungal spores is added.
The following compounds at 20 ppm in the applied formulation give at least 80% disease control in this test when compared to untreated control under the same conditions, which show extensive disease development.

[3] = 200 ppm in the applied formulation, wheat leaf segments cv. Kanzler, preventative, inoculated 1 day after application, assessed 7 to 9 days after application, vs untreated
[4] = 20 ppm in the applied formulation, liquid culture in PDB, 24° C., inhibition of growth measured photometrically 3 to 4 days after application, vs untreated

Compound	pest or weed control at 200 ppm [1, 3]	inhibition of growth at 20 ppm [2, 4]	pest or weed control at 200 ppm [1]	inhibition of growth at 20 ppm [2]
COc1cc(Cl)cnc1OCc1cn(Cc2ccc(-c3noc(C(F)(F)F)n3)cc2)nn1 [Compound 1.29, 3-[4-[[4-[(5-chloro-3-methoxy-2-pyridyl)oxymethyl]triazol-1-yl]methyl]phenyl]-5-(trifluoromethyl)-1,2,4-oxadiazole]	≥ 80%	≥ 80%	–	–
FC(F)(F)c1nc(-c2ccc(Cn3ccnc3-c3ccccc3)cc2)no1 [Compound 1.47, 3-[4-[(2-phenylimidazol-1-yl)methyl]phenyl]-5-(trifluoromethyl)-1,2,4-oxadiazole]	≥ 80%	≥ 80%	–	–
FC(F)(F)c1nc(-c2ccc(Cn3c(C(F)(F)F)nc4ccccc43)cc2)no1 [Compound 1.48, 5-(trifluoromethyl)-3-[4-[[2-(trifluoromethyl)benzimidazol-1-yl]methyl]phenyl]-1,2,4-oxadiazole]	≥ 80%	≥ 80%	–	–
CC(=O)c1cn(Cc2ccc(-c3noc(C(F)(F)F)n3)cc2)c2ccccc12 [Compound 1.50, 1-[1-[[4-[5-(trifluoromethyl)-1,2,4-oxadiazol-3-yl]phenyl]methyl]indol-3-yl]ethanone]	–	–	≥ 80%	≥ 80%
Cc1ccc2c(ccn2Cc2ccc(-c3noc(C(F)(F)F)n3)cc2)c1 [Compound 1.52, 3-[4-[(5-methylindol-1-yl)methyl]phenyl]-5-(trifluoromethyl)-1,2,4-oxadiazole]	≥ 80%	≥ 80%	–	–
Cc1nccn1Cc1ccc(-c2noc(C(F)(F)F)n2)cc1 [Compound 1.53, 3-[4-[(2-methylimidazol-1-yl)methyl]phenyl]-5-(trifluoromethyl)-1,2,4-oxadiazole]	≥ 80%	–	–	–
COc1ccc2c(c1)c(C=O)cn2Cc1ccc(-c2noc(C(F)(F)F)n2)cc1 [Compound 1.57, 5-methoxy-1-[[4-[5-(trifluoromethyl)-1,2,4-oxadiazol-3-yl]phenyl]methyl]indole-3-carbaldehyde]	≥ 80%	≥ 80%	–	–
N#CCc1nc2ccccc2n1Cc1ccc(-c2noc(C(F)(F)F)n2)cc1 [Compound 1.58, 2-[1-[[4-[5-(trifluoromethyl)-1,2,4-oxadiazol-3-yl]phenyl]methyl]benzimidazol-2-yl]acetonitrile]	≥ 80%	≥ 80%	–	–
N#Cc1ccn(Cc2ccc(-c3noc(C(F)(F)F)n3)cc2)c1 [Compound 1.60, 1-[[4-[5-(trifluoromethyl)-1,2,4-oxadiazol-3-yl]phenyl]methyl]pyrrole-3-carbonitrile]	≥ 80%	≥ 80%	–	–
CCc1nc2ccccc2n1Cc1ccc(-c2noc(C(F)(F)F)n2)cc1 [Compound 1.63, 3-[4-[(2-ethylbenzimidazol-1-yl)methyl]phenyl]-5-(trifluoromethyl)-1,2,4-oxadiazole]	≥ 80%	≥ 80%	–	–
Fc1ccc(-c2nccn2Cc2ccc(-c3noc(C(F)(F)F)n3)cc2)cc1 [Compound 1.65, 3-[4-[[2-(4-fluorophenyl)imidazol-1-yl)methyl]phenyl]-5-(trifluoromethyl)-1,2,4-oxadiazole]	≥ 80%	≥ 80%	–	–
FC(F)(F)c1nc(-c2ccc(Cn3c(-c4ccncc4)nc4ccccc43)cc2)no1 [Compound 1.73, 3-[4-[[2-(4-pyridyl)benzimidazol-1-yl]methyl]phenyl]-5-(trifluoromethyl)-1,2,4-oxadiazole]	≥ 80%	≥ 80%	–	–
O=C1CCc2cn(Cc3ccc(-c4noc(C(F)(F)F)n4)cc3)cc21 [Compound 1.74, 2-[[4-[5-(trifluoromethyl)-1,2,4-oxadiazol-3-yl]phenyl]methyl]-5,6-dihydrocyclopenta[c]pyrrol-4-one]	≥ 80%	≥ 80%	–	–
COc1ccc2c(ccn2Cc2ccc(-c3noc(C(F)(F)F)n3)cc2)c1 [Compound 1.75, 3-[4-[(5-methoxyindol-1-yl)methyl]phenyl]-5-(trifluoromethyl)-1,2,4-oxadiazole]	≥ 80%	≥ 80%	–	–
FC(F)(F)c1nc(-c2ccc(Cn3cnc4c(Cl)cccc43)cc2)no1 [Compound 1.94, 3-[4-[(4-chlorobenzimidazol-1-yl)methyl]phenyl]-5-(trifluoromethyl)-1,2,4-oxadiazole]	≥ 80%	≥ 80%	–	–
FC(F)(F)c1nc(-c2ccc(Cn3cnc4cccc(Cl)c43)cc2)no1 [Compound 1.95, 3-[4-[(7-chlorobenzimidazol-1-yl)methyl]phenyl]-5-(trifluoromethyl)-1,2,4-oxadiazole]	≥ 80%	≥ 80%	–	–
Cc1cn(Cc2ccc(-c3noc(C(F)(F)F)n3)cc2Cl)c(C)n1 [Compound 1.105, 3-[3-chloro-4-[(2,4-dimethylimidazol-1-yl)methyl]phenyl]-5-(trifluoromethyl)-1,2,4-oxadiazole]	≥ 80%	–	–	–
FC(F)(F)c1nc(-c2ccc(Cn3cnc(Br)c3)c(Cl)c2)no1 [Compound 1.107, 3-[4-[(4-bromoimidazol-1-yl)methyl]-3-chloro-phenyl]-5-(trifluoromethyl)-1,2,4-oxadiazole]	≥ 80%	≥ 80%	–	–
COC(=O)c1ncn(Cc2ccc(-c3noc(C(F)(F)F)n3)cc2Cl)n1 [Compound 1.108, methyl 1-[[2-chloro-4-[5-(trifluoromethyl)-1,2,4-oxadiazol-3-yl]phenyl]methyl]-1,2,4-triazole-3-carboxylate]	≥ 80%	≥ 80%	–	–
Cc1cn(Cc2ccc(-c3noc(C(F)(F)F)n3)cc2Cl)cn1 [Compound 1.109, 3-[3-chloro-4-[(4-methylimidazol-1-yl)methyl]phenyl]-5-(trifluoromethyl)-1,2,4-oxadiazole]	≥ 80%	≥ 80%	–	–
FC(F)(F)c1nc(-c2ccc(Cn3ccnc3)c(Cl)c2)no1 [Compound 1.112, 3-[3-chloro-4-(imidazol-1-ylmethyl)phenyl]-5-(trifluoromethyl)-1,2,4-oxadiazole]	≥ 80%	≥ 80%	–	–
COC(=O)c1ncn(Cc2ccc(-c3noc(C(F)(F)F)n3)cc2F)n1 [Compound 1.122, methyl 1-[[2-fluoro-4-[5-(trifluoromethyl)-1,2,4-oxadiazol-3-yl]phenyl]methyl]-1,2,4-triazole-3-carboxylate]	≥ 80%	≥ 80%	–	–
Fc1cc(-c2noc(C(F)(F)F)n2)ccc1Cn1cccc2ccnc1-2 [Compound 1.125, 3-[3-fluoro-4-(pyrrolo[2,3-b]pyridin-7-ylmethyl)phenyl]-5-(trifluoromethyl)-1,2,4-oxadiazole]	≥ 80%	–	–	–
Fc1cc(-c2noc(C(F)(F)F)n2)ccc1Cn1cnc2ccccc21 [Compound 1.126, 3-[4-(benzimidazol-1-ylmethyl)-3-fluoro-phenyl]-5-(trifluoromethyl)-1,2,4-oxadiazole]	≥ 80%	≥ 80%	–	–
Cc1nccn1Cc1ccc(-c2noc(C(F)(F)F)n2)cn1 [Compound 1.139, 3-[6-[(2-methylimidazol-1-yl)methyl]-3-pyridyl]-5-(trifluoromethyl)-1,2,4-oxadiazole]	≥ 80%	–	–	–
O=C(NCC1CC1)c1cnn(Cc2ccc(-c3noc(C(F)(F)F)n3)cc2)c1 [Compound 1.249, N-(cyclopropylmethyl)-1-[[4-[5-(trifluoromethyl)-1,2,4-oxadiazol-3-yl]phenyl]methyl]pyrazole-4-carboxamide]	≥ 80%	≥ 80%	–	–
FC(F)(F)c1nc(-c2ccc(CN3CCOCC3)cc2)no1 [Compound 1.301, 4-[[4-[5-(trifluoromethyl)-1,2,4-oxadiazol-3-yl]phenyl]methyl]morpholine]	≥ 80%	–	–	–
C[C@@H]1CN(Cc2ccc(-c3noc(C(F)(F)F)n3)cc2)C[C@@H](C)O1 [Compound 1.308, (2R,6R)-2,6-dimethyl-4-[[4-[5-(trifluoromethyl)-1,2,4-oxadiazol-3-yl]phenyl]methyl]morpholine]	≥ 80%	–	–	–
